# Measurements from US12644203B2, “Cellular phenotype screening method” (ThinkCyte, Inc., priority 2020, dated 2026).
# Legend:
# Format in all cases: cell-based
# [1] = test system: nuclear localization of NF-κB in THP1 cells; assay: Nuclear localization score of sorted cells by image flow cytometry; settings: cells treated with LPS and test substance (TAK242 30 μM); higher value indicates higher degree of nuclear localization; FIG. 22
# Procedure: The photographic images of the cells were captured by an image flow cytometry and the nuclear localization scores were also calculated by the imaging flow cytometry. Regarding the nuclear localization scores, a higher value indicates a higher degree of nuclear localization.
# [2] = test system: nuclear localization of NF-κB induced by LPS in THP1 cells; assay: Cellular phenotype screening in a 96-well microplate: imaging cell sorter sorting, then enrichment of first barcode nucleic acid sequences; settings: sorted for absence of NF-κB nuclear localization under LPS stimulation; value above 1 = more concentrated than before sorting; TAK242 at 30 μM; FIG. 21
# Procedure: In accordance with the schematic diagram illustrated in FIG. 18, a search was carried out for test targets which cause a desired phenotypic change (in the example of FIG. 18, test substances which inhibit nuclear localization of NF-κB induced by LPS).
# Specifically, in each well of a 96-well microplate, the first barcode nucleic acids were attached to cells (THP1 cells) according to the method described in Reference Example 1 and further brought into contact with test substances. At this time, different types and concentrations of the test substance and different types of the first barcode nucleic acids were used in each well. Due to this, 96 types of test targets (24 types of test substances×4 types of concentrations) were associated with 96 types of first barcode nucleic acids which are attached to the cells (THP1 cells). […]
# Next, in the same manner as the examples described above, a single cell analysis was performed on the cell mixture solution sorted and recovered by the imaging cell sorter. Specifically, when reading out the DNA barcodes modifying each cell and cell-derived genetic information, the Chromium Controller apparatus and the Single Cell 3′ Reagent Kit v3 manufactured by 10× Genomics, which is a single cell analysis technology using a droplet technique as in Example 5 and Example 6, were used. […]
# [3] = test system: NFκB protein nuclear localization in THP1 cells; assay: NFκB protein localization by immunostaining and fluorescent light microscope in cells treated with the drug; settings: LPS 2 μg/mL, 2 hours at 37 degrees, fluorescent light microscope, FIG. 7
# Procedure: Next, cells collected by centrifugation in advance were added to the tube 1 and incubated. The cells used at this time were THP1 cells and the cell concentration was set to 1×10^7 cells/mL. The incubation was carried out for 5 minutes at room temperature.
# Cells were resuspended in RPM1-1640 medium with 10% FBS and 50 μM 2-mercaptoethanol in the tube 1 and the tube 2, respectively. Next, as a drug, lipopolysaccharide (LPS) suspended in dimethyl sulfoxide (DMSO) was added to tube 1 only, at a final concentration of 2 μg/mL. In the tube 2, only DMSO, the solvent for the drug, was added. Next, the tube 1 and the tube 2 were incubated for 2 hours at 37 degrees in CO2, respectively. Through the experiment up to here, the drug condition whether the drug LPS is present or not, was respectively associated to each of the cells by corresponding each cell to the first barcode nucleic acid type A or the second barcode nucleic acid type B.
# Next, some cells were collected from the tube 1 and the tube 2, respectively. […]
Compound,nuclear localization score [1],enrichment level of the first barcode nucleic acid sequence of the sorted cells [2],localization of NFκB protein [3]
C=C1C(=O)O[C@@H]2/C=C(\C)CC/C=C(\C)CC[C@@H]12 [Costunolide],0.23,significantly enriched,
CCOC(=O)C1=CCCC[C@H]1S(=O)(=O)Nc1ccc(F)cc1Cl [TAK242],0.92,approximately 1.5 fold,
lipopolysaccharide [LPS],0.30,,almost all of the NFκB protein was localized in the nucleus
